Measured values from PMC4660513 (Pharmacognosy Research, 2015).
Where “and” joins values, the source holds several entries; their conditions need not be identical. Equal entries are not always repeated. Structures can show the parent of a compound that is named as a salt. Where two headings read alike, the source gives them in different places.

Tests used:
human UGT2B7 [1] = settings: read-out: Km for 4-MU glucuronidation by human UGT2B7 isoform; cited from earlier work
[2] = system: UGT (4-MU glucuronidation); assay: 4-MU glucuronidation inhibition assay in rat liver microsomes; assay type: in vitro ADME; settings: rat, rat liver microsomes, pH 7.4, probe 4-methylumbelliferone (4-MU), 100 μM
recombinant human UGT1A1 = biological target: T1, recombinant human UGT1A1 (Homo sapiens, UniProt P22309); assay: 4-MU glucuronidation inhibition assay with recombinant human UGT1A1 isoform; assay type: in vitro ADME
T1 sequence (P22309 26-533): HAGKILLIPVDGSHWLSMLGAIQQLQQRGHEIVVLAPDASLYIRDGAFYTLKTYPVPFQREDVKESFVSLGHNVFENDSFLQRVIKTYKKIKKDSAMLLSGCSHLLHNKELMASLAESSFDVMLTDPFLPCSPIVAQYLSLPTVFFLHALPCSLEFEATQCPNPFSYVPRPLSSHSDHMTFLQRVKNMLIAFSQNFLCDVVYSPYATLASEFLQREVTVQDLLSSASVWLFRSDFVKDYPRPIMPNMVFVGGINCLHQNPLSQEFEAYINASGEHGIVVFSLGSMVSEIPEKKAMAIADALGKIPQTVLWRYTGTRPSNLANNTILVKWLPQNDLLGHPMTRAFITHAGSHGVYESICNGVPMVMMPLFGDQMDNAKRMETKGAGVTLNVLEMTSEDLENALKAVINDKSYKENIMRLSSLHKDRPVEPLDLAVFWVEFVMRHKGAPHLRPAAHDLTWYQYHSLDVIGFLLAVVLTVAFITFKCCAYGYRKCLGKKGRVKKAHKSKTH

human UGT2B15 = settings: read-out: estimated IC50, human UGT2B15; previous study; cited from earlier work
[3] = cited from earlier work
human UGT2B7 [4] = settings: read-out: estimated IC50, human UGT2B7; previous study; cited from earlier work
UGT (s) = settings: cited from earlier work
recombinant human UGT2B7 = biological target: T2, recombinant human UGT2B7 (Homo sapiens, UniProt P16662); assay: 4-MU glucuronidation inhibition assay with recombinant human UGT2B7 isoform; assay type: in vitro ADME
T2 sequence (P16662 24-529): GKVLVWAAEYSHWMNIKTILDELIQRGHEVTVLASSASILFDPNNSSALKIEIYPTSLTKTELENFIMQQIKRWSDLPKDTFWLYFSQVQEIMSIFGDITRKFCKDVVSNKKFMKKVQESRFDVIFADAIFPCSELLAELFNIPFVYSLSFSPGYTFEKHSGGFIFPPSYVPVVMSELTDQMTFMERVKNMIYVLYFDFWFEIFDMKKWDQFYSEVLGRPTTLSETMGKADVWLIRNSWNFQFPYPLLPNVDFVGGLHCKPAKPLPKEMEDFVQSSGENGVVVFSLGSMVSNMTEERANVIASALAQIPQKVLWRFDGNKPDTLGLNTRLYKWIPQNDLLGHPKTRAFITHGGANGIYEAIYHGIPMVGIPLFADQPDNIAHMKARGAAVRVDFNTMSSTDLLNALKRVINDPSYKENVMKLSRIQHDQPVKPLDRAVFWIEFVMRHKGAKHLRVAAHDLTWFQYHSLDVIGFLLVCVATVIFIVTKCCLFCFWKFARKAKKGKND

human UGT1A1 = settings: previous report; cited from earlier work
UGT1A1 = settings: except at highly extraordinary concentrations; cited from earlier work
human UGT2B7 [5] = settings: read-out: Km for buprenorphine glucuronidation by human UGT2B7 isoform; cited from earlier work
human liver microsomes = assay: 4-MU glucuronidation inhibition assay in human liver microsomes; assay type: in vitro ADME; settings: comparison of IC50 values
rat liver microsomes = assay: 4-MU glucuronidation inhibition assay in rat liver microsomes; assay type: in vitro ADME

For `Cc1cc(=O)oc2cc(O)ccc12` [4-MU, 4-methylumbelliferone], the Km (human UGT2B7 [1]) is given as 335 µM.
`O=C(O)Cc1ccccc1Nc1c(Cl)cccc1Cl` [Diclofenac, diclofenac] gave an IC50 at 30 min [2] of 21.1 ± 1.32 µM and an IC50 (recombinant human UGT1A1) of 2.34 ± 1.28 µM.
For `CNC1(c2ccccc2Cl)CCCCC1=O` (centres unmarked) [Ketamine, Ketamine hydrochloride], the IC50 (human UGT2B15) is listed as 95 µM, the IC50 at 30 min [2] is listed as 6.21 ± 1.51 µM and the “ketamine concentration after low-dose administration” value ([3]; 0.125–0.250 mg/kg intravenous) is listed as > 0.42 μM and > 100 μg/l. The “mean plasma concentration during steady-state anesthesia” value ([3]; induction 2 mg/kg, maintenance approx. 40 μg/kg/min) was 9.3 µM, the IC50 (human UGT2B7 [4]) was 55 µM and the “manner of inhibition of morphine-3-glucuronide formation” value (UGT (s)) was “non-competitive”. For the same compound, the IC50 (recombinant human UGT2B7) was 27.3 ± 1.18 µM, the IC50 (recombinant human UGT1A1) was over 1000 µM and the “inhibitory effect on 4-MU glucuronidation in human UGT1A1 isoform” value (human UGT1A1) was “weak inhibitory effect”.
In the case of buprenorphine hydrochloride, the “inhibitory effect on bilirubin glucuronidation catalyzed by UGT1A1” value (UGT1A1) is listed as “no significant inhibitory effect”, the Km (human UGT2B7 [5]) is listed as 20.9 µM and the “potency relative to diclofenac (more potent)” value (human liver microsomes) is listed as “about 13 orders of magnitude”. For the same compound, the “potency relative to diclofenac” value (rat liver microsomes; rat liver microsomes, comparison of IC50 values) was “about three orders of magnitude less potent than diclofenac” and the IC50 (rat liver microsomes; read-out: IC50 on 4-MUG formation, rat liver microsomes) was 73.2 ± 1.63 µM.
